From patent publication US20170233409A1, “TYPE IV SECRETION SYSTEM INHIBITORS” (priority 2016, published 2017)
Entries after “also recorded” stand apart in the source; their conditions may differ.

Tests used:
[1] = test system: H. pylori; test: H. pylori viability (cellular ATP, CellTiter-Glo); type: cell-based; conditions: concentrations up to 150 μM
[2] = test system: cag T4SS; type: cell-based, H. pylori
[3] = test system: cag T4SS; test: NF-κB luciferase reporter activation by H. pylori in AGS cells; type: cell-based
Description: Quantitation of NF-κB signaling activation. AGS cells stably transfected with an NF-κB-luciferase reporter (AGS NF-κB-luc) were cultured for 24 h and treated as described for the IL-8 induction studies. After 4 h co-culture with H. pylori, cell monolayers were washed with sterile PBS, and cell monolayer extracts were obtained by passive cell lysis. NF-κB-luciferase activity was measured by the Steady-Glo Luciferase Assay System (Promega) on a BioTek Synergy 4 plate reader, and plates were normalized to the DMSO vehicle control for each dilution series.

[4] = test system: cag T4SS; test: CagA translocation assay (tyrosine-phosphorylated CagA immunoblot); type: cell-based, H. pylori; conditions: 150 μM; compared to vehicle-only and GKP42-treated controls
[5] = test system: cag T4SS pili; test: Scanning electron microscopy of cag T4SS pili; type: cell-based, H. pylori; conditions: 150 μM, SEM
Description: Scanning electron microscopy. Overnight cultures of H. pylori were diluted to OD600˜0.3 and incubated with shaking at 37° C., 5% CO2 for 1 h in the presence of vehicle or 150 μM compound and co-cultured with AGS cells on tissue culture-treated coverslips (BD Biosciences) at an MOI of 100 in the presence of 150 μM compound or vehicle. H. pylori-AGS cell co-cultures were processed and imaged.
Field emission gun scanning electron microscopy. Samples were fixed with 2.0% paraformaldehyde, 2.5% glutaraldehyde in 0.05 M sodium cacodylate buffer, and secondarily fixed with 0.1% osmium tetroxide. Sequential dehydration was performed by washing with increasing concentrations of ethanol. Samples were dried at the critical point with a Tousimis critical point dryer. Coverslips were mounted onto aluminum stubs and sputter coated with gold-palladium and imaged with an FEI Quanta 250 FEG-SEM.

[6] = test system: H. pylori cag T4SS; type: cell-based; conditions: strain J166 pre-treated 30 min, 50 μM, 18 hours
[7] = target: T1, TLR9 (Homo sapiens, UniProt Q9NR96); test: TLR9 activation by CpG ODN (control); type: cell-based; conditions: 50 μM
T1 construct: host or cells: HEK293-TLR9 reporter cell line
T1 sequence (Q9NR96 26-1032): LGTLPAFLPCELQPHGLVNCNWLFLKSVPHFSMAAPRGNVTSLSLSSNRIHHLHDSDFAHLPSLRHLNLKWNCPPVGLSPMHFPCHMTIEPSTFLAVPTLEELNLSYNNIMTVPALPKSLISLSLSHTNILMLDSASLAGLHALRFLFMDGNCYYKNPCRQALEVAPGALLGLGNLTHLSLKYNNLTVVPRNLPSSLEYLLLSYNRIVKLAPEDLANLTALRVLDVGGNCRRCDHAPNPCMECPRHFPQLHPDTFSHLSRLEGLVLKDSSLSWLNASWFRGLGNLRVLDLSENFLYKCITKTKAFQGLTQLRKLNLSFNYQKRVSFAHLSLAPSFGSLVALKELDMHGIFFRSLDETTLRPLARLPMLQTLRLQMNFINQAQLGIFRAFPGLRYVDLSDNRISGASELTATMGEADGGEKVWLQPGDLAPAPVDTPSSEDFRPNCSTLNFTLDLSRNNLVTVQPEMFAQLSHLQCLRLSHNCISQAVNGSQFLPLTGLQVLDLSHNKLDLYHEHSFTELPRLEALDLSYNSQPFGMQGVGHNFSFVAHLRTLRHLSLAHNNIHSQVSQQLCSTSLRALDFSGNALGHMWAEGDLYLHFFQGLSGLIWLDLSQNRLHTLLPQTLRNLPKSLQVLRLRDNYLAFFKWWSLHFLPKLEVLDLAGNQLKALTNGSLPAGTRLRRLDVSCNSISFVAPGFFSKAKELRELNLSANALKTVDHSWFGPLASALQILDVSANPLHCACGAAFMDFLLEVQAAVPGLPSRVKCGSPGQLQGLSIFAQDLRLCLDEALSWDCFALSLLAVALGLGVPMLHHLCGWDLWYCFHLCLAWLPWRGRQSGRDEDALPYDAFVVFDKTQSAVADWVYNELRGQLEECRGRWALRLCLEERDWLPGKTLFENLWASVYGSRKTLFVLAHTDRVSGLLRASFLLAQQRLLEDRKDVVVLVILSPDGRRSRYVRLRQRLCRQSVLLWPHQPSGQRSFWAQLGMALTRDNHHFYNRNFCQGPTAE
Description: Inhibition of T4SS-dependent activation of human TLR9 signaling by H. pylori. H. pylori strain J166 was grown in broth culture overnight, and was subsequently pre-treated in the indicated compound at a final concentration of 50 μM, or in an equivalent volume of DMSO vehicle for 30 min prior to inoculating cultured HEK293-TLR9 reporter cell lines. Co-cultures were incubated in the presence of 50 μM compound or an equivalent volume of DMSO vehicle supplemented in the cell culture media for the duration of incubation (18 hours). TLR9 activation was assayed using a colorimetric assay (Invivogen), and TLR9 activation in the presence of type IV secretion system (T4SS) inhibitor compounds is expressed as a percentage of TLR9 activation by H. pylori in the presence of vehicle. As a control, TLR9 was activated with the immunostimulatory synthetic ligand CpG oligodeoxynucleotide (CpG ODN) in the presence of DMSO or inhibitor compound at 50 μM final concentration.

[8] = test system: IncF group R1-16 conjugative T4SS; test: DNA conjugation efficiency, R1-16; conditions: 150 μM
Description: (§1) Analysis of DNA conjugation efficiency. Overnight cultures of donor E. coli MG1655 harboring pKM101, donor E. coli MS411 harboring R1-16, and recipient E. coli MG1655 (WM1652) were grown at 37° C. with shaking at 225 rpm in LB/antibiotic, were diluted in antibiotic-free LB containing DMSO or 150 μM compound, and incubated with shaking at 37° C. to reach an OD600 of ˜0.3. Donor and recipient cells were mixed at a ratio of 1:1 on 0.22 μM pore size mixed cellulose ester filters (Millipore) on antibiotic-free LB plates for 2 h at 37° C. Filters were aseptically removed from LB plates and incubated in 100 μl antibiotic-free LB to dislodge E. coli from membranes. Serial dilutions were plated on the appropriate antibiotic (or dual antibiotic) LB plates to determine the number of donor, recipient, and transconjugant cells. Colonies were enumerated after 24 h, and conjugation efficiencies were calculated by dividing the average number of transconjugates by the average number of donors (either pKM101 or R1-16 donor cells). Conjugation efficiency in the presence of compound is expressed as a percentage of conjugation efficiency in DMSO.

[9] = test system: IncN group conjugative T4SS encoded by pKM101; test: DNA conjugation efficiency, pKM101; conditions: 150 μM, compared to vehicle controls
Description: as §1

COc1ccc(Cc2cc(=O)n3c(c2C2CC2)SC[C@H]3C(=O)O)c2ccccc12 [KSK85, (3R)-7-[(4-methoxynaphthalen-1-yl)methyl]-8-cyclopropyl-5-oxo-2,3-dihydro-5H-[1,3]thiazolo[3,2-a]pyridine-3-carboxylic acid]
viability of bacterial cells [1]: did not impact viability
LogEC50, attenuation of cag T4SS-dependent IL-8 secretion ([2]; 4.5 h co-culture, normalized IL-8 secretion, non-linear regression): −1.14
cag T4SS-dependent IL-8 secretion ([2]; H. pylori-gastric epithelial cell co-culture, 25-150 μM): significantly reduced
EC50 ([2]; read-out: EC50, attenuation of cag T4SS-dependent IL-8 secretion, 4.5 h co-culture, normalized IL-8 secretion, non-linear regression): 72.2 µM
cag T4SS-dependent NF-κB activation ([3]; WT H. pylori, AGS NF-κB-luc cells): significantly reduced; also recorded: reduced compared to the inhibitory effects of C10
cag T4SS-mediated NF-κB activation by H. pylori strains of different phylogeographic origins ([3]; multiple H. pylori strains): inhibited
NF-κB activation by H. pylori ΔcagA mutant compared to WT strain ([3]; ΔcagA mutant): significantly enhanced
amount of tyrosine-phosphorylated CagA in cultured gastric epithelial cells [4]: significantly reduced
cag T4SS pilus formation at the bacteria-host cell interface [5]: abrogated pilus formation in the majority of H. pylori cells
T4SS-dependent activation of TLR9 by H. pylori [6]: inhibit
activation of TLR9 by CpG ODN [7]: not by CpG ODN
DNA conjugation efficiency of the de-repressed R1-16 system [8]: did not
DNA conjugation efficiency of pKM101 [9]: reduced
